Data as given in patent publication US20080114007A1 (priority 2006, published 2008).

Tests used:
c-fms = c-fms (Homo sapiens, UniProt P07333); assay: Autophosphorylation, fluorescence polarization competition immunoassay; assay type: biochemical; settings: 10 nM c-fms, 1 mM ATP, 5 mM MgCl2, 45 min; averages of three independent measurements
Description: The assay buffer used was 100 mM 4-(2-hydroxyethyl)piperazine 1-ethanesulfonic acid (HEPES), pH 7.5, 1 mM 1,4-dithio-DL-threitol (DTT), 0.01% (v/v) Tween-20. Compounds were diluted in assay buffer containing 4% dimethylsulfoxide (DMSO) just prior to the assay. […] The kinase reaction was initiated by adding 2 μL of 5 mM ATP (Sigma) in assay buffer. The final concentrations in the assay were 10 nM c-fms, 1 mM ATP, 5 mM MgCl2, 2% DMSO. Control reactions were ran in each plate: in positive and negative control wells, assay buffer (made 4% in DMSO) was substituted for the compound; in addition, positive control wells received 1.2 μL of 50 mM ethylenediaminetetraacetic acid (EDTA).
At the end of the incubation, the reaction was quenched with 1.2 μL of 50 mM EDTA (EDTA was not added to the positive control wells at this point; see above). Following a 5-min incubation, each well received 10 μL of a 1:1:3 mixture of anti-phosphotyrosine antibody, 10×, PTK green tracer, 10× (vortexed), FP dilution buffer, respectively (all from PanVera, cat. # P2837). The plate was covered, incubated for 30 min at room temperature and the fluorescence polarization was read on the Analyst.
The IC50 values shown in Table 1 are averages of three independent measurements.

CSF-1R = CSF-1R (Homo sapiens, UniProt P07333); assay: Peptide (non-phosphorylated) assay, fluorescence polarization competition immunoassay; assay type: biochemical; settings: 0.7 nM CSF-1R, 308 μM SYEGNSYTFIDPTQ peptide, 1 mM ATP, 80 min; mean of at least three determinations; read-out: c-fms Peptide IC50
How it was run: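 Human CSF-1R kinase reaction started with ATP and run 80 min at room temperature, then stopped with EDTA. Phosphopeptide detected by fluorescence polarization competition using anti-phosphotyrosine antibody and PTK green tracer after 30 min. Controls used 4% DMSO, with EDTA added before reaction start for positive controls.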

Sequence of CSF-1R (P07333 20-972): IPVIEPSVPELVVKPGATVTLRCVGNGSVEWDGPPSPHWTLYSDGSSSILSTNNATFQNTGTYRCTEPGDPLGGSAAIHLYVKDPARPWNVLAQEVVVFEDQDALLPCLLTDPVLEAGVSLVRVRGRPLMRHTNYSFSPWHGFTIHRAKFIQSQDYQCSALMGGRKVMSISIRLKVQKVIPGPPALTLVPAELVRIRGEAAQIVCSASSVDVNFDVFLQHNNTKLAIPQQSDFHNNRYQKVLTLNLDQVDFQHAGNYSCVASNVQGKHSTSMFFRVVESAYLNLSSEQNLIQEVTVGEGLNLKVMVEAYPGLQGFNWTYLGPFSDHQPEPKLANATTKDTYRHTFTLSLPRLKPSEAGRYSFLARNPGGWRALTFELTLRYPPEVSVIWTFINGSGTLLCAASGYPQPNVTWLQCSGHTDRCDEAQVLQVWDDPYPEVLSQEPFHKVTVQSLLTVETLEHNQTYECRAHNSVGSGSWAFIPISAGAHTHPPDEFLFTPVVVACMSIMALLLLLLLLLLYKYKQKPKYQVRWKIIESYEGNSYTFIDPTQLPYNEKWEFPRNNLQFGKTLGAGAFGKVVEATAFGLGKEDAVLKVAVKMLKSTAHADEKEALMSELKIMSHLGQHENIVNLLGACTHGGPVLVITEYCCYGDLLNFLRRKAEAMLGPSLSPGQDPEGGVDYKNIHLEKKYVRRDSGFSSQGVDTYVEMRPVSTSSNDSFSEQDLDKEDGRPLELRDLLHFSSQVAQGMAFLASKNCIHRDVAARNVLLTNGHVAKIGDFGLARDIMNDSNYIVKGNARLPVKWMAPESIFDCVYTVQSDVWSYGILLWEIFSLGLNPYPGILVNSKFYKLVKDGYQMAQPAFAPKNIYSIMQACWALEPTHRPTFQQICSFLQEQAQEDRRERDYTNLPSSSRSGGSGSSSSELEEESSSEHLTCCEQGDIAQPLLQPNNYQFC
Sequence of c-fms (P07333 20-972): as above

Row | IC50 (c-fms) | IC50 (CSF-1R) | Structure (SMILES)
1 | 2.6 nM |  | NC(=O)c1cn(-c2ccc3c(c2)CCC3)c2nc(Nc3ccc(CN4CCCCC4)cc3)ncc2c1=O [Cpd 119, 8-indan-5-yl-5-oxo-2-(4-piperidin-1-ylmethyl-phenylamino)-5,8-dihydro-pyrido[2,3-d]pyrimidine-6-carboxylic acid amide]
2 | > 1000 nM |  | CNC(=O)c1cn(-c2ccc3c(c2)CCC3)c2nc(Nc3cccc(C(=O)N4CCCCC4)c3)ncc2c1=O [Cpd 113, 8-indan-5-yl-5-oxo-2-[3-(piperidine-1-carbonyl)-phenylamino]-5,8-dihydro-pyrido[2,3-d]pyrimidine-6-carboxylic acid methylamide]
3 |  | 7.2 nM | CCc1ccc(-n2cc(C(=O)NOC)c(=O)c3cnc(Nc4ccc(CC(=O)O)cc4)nc32)cc1 [Cpd 103, {4-[8-(4-ethyl-phenyl)-6-methoxycarbamoyl-5-oxo-5,8-dihydro-pyrido[2,3-d]pyrimidin-2-ylamino]-phenyl}-acetic acid]

More lines, now with the values behind:

Row | Structure (SMILES) | IC50 (c-fms) | IC50 (CSF-1R)
4 | CCONC(=O)c1cn(-c2ccc3c(c2)CCC3)c2nc(Nc3ccc(C[C@H]4COC(=O)N4)cc3)ncc2c1=O [Cpd 68, (S)-8-indan-5-yl-5-oxo-2-[4-(2-oxo-oxazolidin-4-ylmethyl)-phenylamino]-5,8-dihydro-pyrido[2,3-d]pyrimidine-6-carboxylic acid ethoxy-amide] |  | 0.7 nM
5 | CONC(=O)c1cn(C2CCCC2)c2nc(Nc3ccc(C4CCNCC4)cc3)ncc2c1=O [Cpd 45, 8-cyclopentyl-5-oxo-2-(4-piperidin-4-yl-phenylamino)-5,8-dihydro-pyrido[2,3-d]pyrimidine-6-carboxylic acid methoxy-amide] |  | 1.9 nM
